From patent US20210085640A1, “ACYLATED CATECHIN POLYPHENOLS AND METHODS OF THEIR USE FOR THE TREATMENT OF CANCER” (Flagship Pioneering Innovations V, Inc., priority 2018, published 2021)

How the values were obtained:
[1] = Stability in Simulated Gastric Fluid (SGF); format: in vitro ADME; settings: SGF pH 1.6 with pepsin, 1 μM, 37° C.
Description: Stability of acylated active agents in Simulated Gastric Fluid (SGF). This assay was used to assess the stability of an acylated active agent in a stomach.
Medium was prepared by dissolving 2 g of sodium chloride in 0.6 L in ultrapure water (MilliQ®, Millipore Sigma, Darmstadt, Germany). The pH was adjusted to 1.6 with 1N hydrochloric acid, and the volume was then adjusted to 1 L with purified water.
60 mg FaSSIF powder (Biorelevant™, London, UK) were dissolved in 500 mL buffer (above). Pepsin was added (0.1 mg/mL) (Millipore Sigma, Darmstadt, Germany), and the solution was stirred. The resulting SGF media were used fresh for each experiment.
Test compounds were dissolved in DMSO stock to 1 mM. An aliquot of the DMSO stock solution was removed and diluted in the SGF Media in 15 mL falcon tubes to generate a total compound concentration of 1 μM. A 1 mL aliquot was immediately removed and diluted once with 1 volume of acetonitrile for T0 timepoint. The mixture was sealed and mixed at 37° C. in an incubator. Aliquots (1 mL) were removed at regular intervals and immediately quenched by the addition of 1 volume of acetonitrile. The resulting samples were analyzed by LC/MS to determine degradation rates

[2] = Fecal Incubation Stability; format: in vitro ADME; settings: fecal slurry, anaerobic, 1 or 10 μM
Description: Fecal Incubation Stability. This assay was used to assess the stability of an acylated active agent in a large intestine. All experiments were performed in an anaerobic chamber containing 90% nitrogen, 5% hydrogen and 5% carbon dioxide. Fecal matter in a slurry (15% VW is added to 96 well plates containing YCFA media or other suitable media (1.6 mL). Compounds were added to each individual well to reach a final analyte concentration of 1 or 10 μM, and the material was mixed by pipetting. At set time points a sample was removed, quenched with acetonitrile, and analyzed by LC/MS.

T24 bladder cancer cells = assay: Cancer cell survival (CellTiter-Glo), T24; format: cell-based; settings: 72 h
Summary of the method: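 T24 cells seeded at 4×10^3 cells/well overnight, then exposed 72 h at 37 C, 5% CO2 to nine concentrations in triplicate. Survival measured by CellTiter-Glo luminescence relative to untreated and medium controls; IC50 derived.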

[3] = system: Daudi lymphoma cancer cells; assay: Cancer cell survival (CellTiter-Glo), Daudi; format: cell-based; settings: 72 h
Summary of the method: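 Daudi cells (4×10^3/well) were exposed for 72 h at 37 °C to nine concentrations of compound, added as 10× solutions spanning 1 μM–10 mM (fatty acids) or 100 nM–1 mM (others). CellTiter-Glo luminescence gave % survival versus untreated, medium-blank corrected; IC50 derived.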

MCF7 breast cancer cells = assay: Cancer cell survival (CellTiter-Glo), MCF7; format: cell-based; settings: 72 h
Summary of the method: (§1)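 Cells were seeded at 4×10^3 cells/well and left overnight at 37 C, 5% CO2, then exposed in triplicate to nine compound concentrations for 72 h. Dosing solutions were made at 10× final (1 μM-10 mM fatty acids, 100 nM-1 mM other compounds). CellTiter-Glo luminescence, normalised to untreated and medium-only wells, gave IC50.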

[4] = system: HCT 116 colorectal cancer cells; assay: Cancer cell survival (CellTiter-Glo), HCT 116; format: cell-based; settings: HCT 116 cells, 72 h
Summary of the method: as §1

A549 lung cancer cells = assay: Cancer cell survival (CellTiter-Glo), A549; format: cell-based; settings: 72 h
Summary of the method: as §1

[5] = system: PC-3 prostate cancer cells; assay: Cancer cell survival (CellTiter-Glo), PC-3; format: cell-based; settings: PC-3 cells, 72 h
Summary of the method: as §1

A-431 skin cancer cells = assay: Cancer cell survival (CellTiter-Glo), A-431; format: cell-based; set-up: Cell survival at given concentration: unit not given here; settings: A-431 cells, 72 h
Summary of the method: as §1

AGS stomach cancer cells = assay: Cancer cell survival (CellTiter-Glo), AGS; format: cell-based; set-up: Cell survival at given concentration: unit not given here
Summary of the method: as §1

naïve CD4^+ T cells = assay: Human Regulatory T Cell Differentiation Assay; format: cell-based; settings: 6 days
Description: (§2) Peripheral blood mononuclear cells (PBMCs) from whole blood donated by health volunteers were separated by Ficoll-Paque gradient centrifugation and naïve CD4^+ T cells were subsequently isolated using magnet beads (EasySep™ Human Naïve CD4^+ T Cell Isolation Kit, Cambridge, Mass.). For regulatory T cell (Treg) differentiation assay, naïve CD4^+ T cells were cultured (1-10×10^4 cells) in CTS OpTmizer medium for 6 days and stimulated with 5 ng/ml TGF-β, 100 U/ml IL-2, and ImmunoCult™ Human […] T Cell Activator; Stemcell #10990) with/without Compounds. Cell viability was determined using a viability dye (eBioscience Fixable Viability Dye eFluor 780: ThermoFisher 65-0865-14) at 1:500 dilution. The cells were gated for Treg, defined as Live, CD11c^−, CD14^−, CD19^−, CD8^−, CD4^+, CD3^+, CD25^+, FOXP3^+. Percent (%) Tregs were calculated as percentage of CD4^+, CD25^+, FOXP3^+ cells over total CD4^+ T cells. Statistical analysis was performed with GraphPad Prism Software Using One-Way ANOVA.

[6] = Human Regulatory T Cell Differentiation Assay; format: cell-based; settings: human, primary naïve CD4+ T cells isolated from PBMCs, 3 mM, read-out: Cell viability % DMSO
Description: as §2

CCCC(=O)O[C@H](C)CC(=O)Oc1ccc(/C=C/c2cc(OC(=O)C[C@@H](C)OC(=O)CCC)cc(OC(=O)C[C@@H](C)OC(=O)CCC)c2)cc1 [Compound 16, [4-[(E)-2-[3,5-bis[[(3R)-3-butanoyloxybutanoyl]oxy]phenyl]vinyl]phenyl] (3R)-3-butanoyloxy-butanoate]
Assay 1 (SGF) (% Remaining @ 1 hours) [1]: C (>75% of the tested compound remaining)
Assay 3 (% Remaining at 24 h) [2]: A (<25% of the tested compound remaining)

O=C(O[C@@H]1Cc2c(O)cc(O)cc2O[C@@H]1c1cc(O)c(O)c(O)c1)c1cc(O)c(O)c(O)c1 [EGCG, epigallocatechin gallate]
Cell survival at given concentration (T24 bladder cancer cells; 101 nM): 1.00
Cell survival at given concentration (T24 bladder cancer cells; 318 nM): 0.97
Cell survival at given concentration (T24 bladder cancer cells; 1 μM): 1.02
Cell survival at given concentration (T24 bladder cancer cells; 3 μM): 1.01
Cell survival at given concentration (T24 bladder cancer cells; 10 μM): 0.96
Cell survival at given concentration (T24 bladder cancer cells; 32 μM): 0.58
Cell survival at given concentration (T24 bladder cancer cells; 100 μM): 0.15
Cell survival at given concentration (T24 bladder cancer cells; 316 μM): 0.03
Cell survival at given concentration (T24 bladder cancer cells; 1000 μM): 0.03
IC50 (T24 bladder cancer cells; Table 3.1, read-out: 1050): 37.8 µM
Cell survival at given concentration ([3]; 101 nM): 1.03
Cell survival at given concentration ([3]; 318 nM): 1.02
Cell survival at given concentration ([3]; 1 μM): 1.01
Cell survival at given concentration ([3]; 3 μM): 0.97
Cell survival at given concentration ([3]; 10 μM): 0.76
Cell survival at given concentration ([3]; 32 μM): 0.31
Cell survival at given concentration ([3]; 100 μM): 0.17
Cell survival at given concentration ([3]; 316 μM): 0.00
Cell survival at given concentration ([3]; 1000 μM): 0.00
IC50 ([3]; Table 4.1): 20.4 µM
Cell survival at given concentration (MCF7 breast cancer cells; 101 nM): 1.01
Cell survival at given concentration (MCF7 breast cancer cells; 318 nM): 0.99
Cell survival at given concentration (MCF7 breast cancer cells; 1 μM): 0.99
Cell survival at given concentration (MCF7 breast cancer cells; 3 μM): 0.97
Cell survival at given concentration (MCF7 breast cancer cells; 10 μM): 0.96
Cell survival at given concentration (MCF7 breast cancer cells; 32 μM): 0.77
Cell survival at given concentration (MCF7 breast cancer cells; 100 μM): 0.55
Cell survival at given concentration (MCF7 breast cancer cells; 316 μM): 0.51
Cell survival at given concentration (MCF7 breast cancer cells; 1000 μM): 0.11
IC50 (MCF7 breast cancer cells; Table 5.1): 231 µM
Cell survival at given concentration ([4]; 101 nM): 1.05
Cell survival at given concentration ([4]; 318 nM): 0.98
Cell survival at given concentration ([4]; 1 μM): 1.00
Cell survival at given concentration ([4]; 3 μM): 1.03
Cell survival at given concentration ([4]; 10 μM): 1.00
Cell survival at given concentration ([4]; 32 μM): 0.61
Cell survival at given concentration ([4]; 100 μM): 0.25
Cell survival at given concentration ([4]; 316 μM): 0.06
Cell survival at given concentration ([4]; 1000 μM): 0.00
IC50 ([4]; Table 6.1): 46.3 µM
Cell survival at given concentration (A549 lung cancer cells; 101 nM): 1.02
Cell survival at given concentration (A549 lung cancer cells; 318 nM): 1.05
Cell survival at given concentration (A549 lung cancer cells; 1 μM): 1.03
Cell survival at given concentration (A549 lung cancer cells; 3 μM): 1.04
Cell survival at given concentration (A549 lung cancer cells; 10 μM): 0.99
Cell survival at given concentration (A549 lung cancer cells; 32 μM): 0.77
Cell survival at given concentration (A549 lung cancer cells; 100 μM): 0.33
Cell survival at given concentration (A549 lung cancer cells; 316 μM): 0.21
Cell survival at given concentration (A549 lung cancer cells; 1000 μM): 0.01
IC50 (A549 lung cancer cells; Table 7.1): 67.4 µM
Cell survival at given concentration ([5]; 101 nM): 1.01
Cell survival at given concentration ([5]; 318 nM): 0.99
Cell survival at given concentration ([5]; 1 μM): 1.01
Cell survival at given concentration ([5]; 3 μM): 0.97
Cell survival at given concentration ([5]; 10 μM): 0.99
Cell survival at given concentration ([5]; 32 μM): 0.82
Cell survival at given concentration ([5]; 100 μM): 0.60
Cell survival at given concentration ([5]; 316 μM): 0.51
Cell survival at given concentration ([5]; 1000 μM): 0.10
IC50 ([5]; Table 8.1): 245 µM
Cell survival at given concentration (A-431 skin cancer cells; 101 nM): 1.02
Cell survival at given concentration (A-431 skin cancer cells; 318 nM): 1.02
Cell survival at given concentration (A-431 skin cancer cells; 1 μM): 1.02
Cell survival at given concentration (A-431 skin cancer cells; 3 μM): 1.01
Cell survival at given concentration (A-431 skin cancer cells; 10 μM): 1.04
Cell survival at given concentration (A-431 skin cancer cells; 32 μM): 0.78
Cell survival at given concentration (A-431 skin cancer cells; 100 μM): 0.38
Cell survival at given concentration (A-431 skin cancer cells; 316 μM): 0.30
Cell survival at given concentration (A-431 skin cancer cells; 1000 μM): 0.04
IC50 (A-431 skin cancer cells; Table 9.1): 81.9 µM
Cell survival at given concentration (AGS stomach cancer cells; 101 nM): 1.01
Cell survival at given concentration (AGS stomach cancer cells; 318 nM): 1.02
Cell survival at given concentration (AGS stomach cancer cells; 1 μM, Table 10.1): 1.05
Cell survival at given concentration (AGS stomach cancer cells; 3 μM, Table 10.1): 1.02
Cell survival at given concentration (AGS stomach cancer cells; 10 μM, Table 10.1): 0.90
Cell survival at given concentration (AGS stomach cancer cells; 32 μM, Table 10.1): 0.49
Cell survival at given concentration (AGS stomach cancer cells; 100 μM, Table 10.1): 0.20
Cell survival at given concentration (AGS stomach cancer cells; 316 μM): 0.08
Cell survival at given concentration (AGS stomach cancer cells; 1000 μM): 0.00
IC50 (AGS stomach cancer cells; Table 10.1): 33.2 µM
Cell viability % DMSO (naïve CD4^+ T cells; 100 nM): = (90% ≥ ≤110%: =)
Treg induction % DMSO (naïve CD4^+ T cells; 100 nM): = (90% ≥ ≤110%: =)
Cell viability % DMSO (naïve CD4^+ T cells; 1 uM): = (90% ≥ ≤110%: =)
Treg induction % DMSO (naïve CD4^+ T cells; 1 uM): = (90% ≥ ≤110%: =)

CCC(=O)O [Propionic acid]
viability at 6 days, 3 mM [6]: 90 to 110%
activity at 3000 µM (naïve CD4^+ T cells; Homo sapiens, CD4+ T, 144 h, 3 mM, read-out: Treg induction % DMSO): > 130%

CC(O)CC(=O)[O-].[Na+] (centres unmarked) [Sodium BHB]
Cell viability % DMSO (naïve CD4^+ T cells; 2 mM): = (90% ≥ ≤110%: =)
Treg induction % DMSO (naïve CD4^+ T cells; 2 mM): + (110% > ≤130%: +)
Cell viability % DMSO (naïve CD4^+ T cells; 20 mM): − (<90%: −)
Treg induction % DMSO (naïve CD4^+ T cells; 20 mM): = (90% ≥ ≤110%: =)
